This note sets out measurements from patent US12679878B2, “CRF2 receptor agonists and their use in therapy” (SANOFI, priority 2020, dated 2026).

In data set [1] the target is T1, human CRF2α receptor (Homo sapiens, UniProt Q13324).
T1 construct: expressed in transfected cells; host or cells: TeloHEAC
T1 sequence (Q13324 1-411): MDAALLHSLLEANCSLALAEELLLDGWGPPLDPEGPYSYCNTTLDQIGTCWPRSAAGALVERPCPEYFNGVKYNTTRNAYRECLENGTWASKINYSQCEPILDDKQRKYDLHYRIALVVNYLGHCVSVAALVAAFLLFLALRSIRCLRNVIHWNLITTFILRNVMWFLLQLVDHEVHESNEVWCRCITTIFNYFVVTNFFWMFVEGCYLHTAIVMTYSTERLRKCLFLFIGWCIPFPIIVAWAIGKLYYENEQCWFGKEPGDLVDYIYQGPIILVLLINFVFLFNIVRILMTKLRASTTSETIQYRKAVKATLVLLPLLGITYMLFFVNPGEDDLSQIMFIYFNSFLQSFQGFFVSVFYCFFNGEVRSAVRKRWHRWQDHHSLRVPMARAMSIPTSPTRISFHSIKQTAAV
Description: cAMP agonism at human CRF2 α receptor in TeloHEAC cells (Example 7). Type of data set: cell-based. Particulars: cAMP HTRF, TeloHEAC cells stably expressing human CRF2 α. In outline: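 HTRF ratio 665/620 nm, read 1 h after lysis reagents, reports cAMP. Cells: thawed stocks, 2000/well, 30 min RT with compound in HBSS, 20 mM HEPES, 0 or 0.1% HSA, 2 mM IBMX. Activity normalised to UCN2 1000 nM = 100%; EC50 from half-maximal activation.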
Background: In TR-FRET formats the signal depends on donor and acceptor labels being close together.

Data set [2] concerns rat CRF2R α receptor. Description: cAMP agonism at rat CRF2R α receptor in A7R5 rat aortic smooth muscle cells (Example 8). Type of data set: cell-based. Particulars: cAMP HTRF, A7R5 rat aortic smooth muscle cell line, 0% HSA. An outline of the steps: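 Thawed cryopreserved A7R5 cells in HBSS/20 mM HEPES (0 or 0.1% HSA) with 2 mM IBMX, 2000 cells/well, were exposed to compound for 30 min at room temperature. cAMP was read by HTRF (665/620 nm ratio) after 1 h with lysis reagents. Activity was normalised to 1000 nM urocortin 2 as 100%, and EC50 was taken as the concentration giving 50% of maximal activation.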

For data set [3], the target named is T2, CRF1R receptor (Homo sapiens, UniProt P34998).
T2 construct: host or cells: CHO-K1 clone 2
T2 sequence (P34998 24-415): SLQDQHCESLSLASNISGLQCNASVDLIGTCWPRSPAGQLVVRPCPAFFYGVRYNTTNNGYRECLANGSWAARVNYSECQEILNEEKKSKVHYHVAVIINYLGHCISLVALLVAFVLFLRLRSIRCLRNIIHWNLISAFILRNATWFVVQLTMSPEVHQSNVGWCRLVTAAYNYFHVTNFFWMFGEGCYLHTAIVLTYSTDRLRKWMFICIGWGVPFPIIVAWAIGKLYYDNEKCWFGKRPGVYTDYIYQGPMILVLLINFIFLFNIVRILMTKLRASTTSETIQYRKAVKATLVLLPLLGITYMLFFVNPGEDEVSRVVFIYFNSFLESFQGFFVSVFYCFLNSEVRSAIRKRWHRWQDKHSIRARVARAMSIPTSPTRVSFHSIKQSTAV
The data set can be described thus: cAMP activity at anti-target CRF1R, CRF1R-overexpression CHO cell line (Example 9). In kind it is cell-based. Particulars: CRF1R-overexpression CHO cell line. In outline:
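cAMP accumulation was read by HTRF after 30 min at room temperature of compound treatment. Cells were cryopreserved CHO cells overexpressing CRF1R, plated at 2000/well in IBMX (2 mM)-containing HBSS/HEPES buffer with 0 or 0.1% HSA. Activity was normalized to 1000 nM UCN2 as 100%.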

Data set [4] is described as follows: Solubility in buffer systems by UPLC-UV (Example 13). Type of data set: physicochemical. Particulars: pH 7.4, Solubility in Buffer C [mg/ml]. In outline:
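The supernatant was diluted 1:10 and quantified by UPLC-UV peak area against a reference standard curve, correcting for sequence-based extinction coefficients.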

Data set [5] is described as follows: Pharmacokinetic properties in rats, i.v. or s.c. (Example 16). Type of data set: in vivo, SD rat. Particulars: male, plasma, Rat; for AUC(0-t) / Cmax / half-life: Sprague-Dawley (SD). On the procedure:
The pharmacokinetic properties of exemplary peptides SEQ ID NO: 35 and SEQ ID NO: 24 were assessed in mice and rats.
The test compound was administered in a suitable buffer system (PBS buffer solution at pH 7.4, or DPBS solution) at concentrations of 0.05, 0.1, 0.5 or 1 mg/ml depending on the dose, species and administration volume. Female C57BI/6 mice and male SD rate were dosed 0.1 mg/kg or 0.3 mg/kg intravenously or subcutaneously. The animals were sacrificed, and blood samples were collected after 0.08, 0.25, 0.5, 1, 2, 4, 8, 24, 32, and 48 hours post-intravenous administration and 0.25, 0.5, 1, 2, 4, 8, 24, 32, and 48 hours post-subcutaneous administration, respectively. Plasma samples were analysed after protein precipitation via liquid chromatography mass spectrometry (LC/MS). Pharmacokinetic parameters and half-life were calculated using Phoenix-WinNonlin 8.1 using a non-compartmental model and linear trapezoidal interpolation calculation.

The nature of data set [6]: Chemical stability, purity loss by UPLC-UV after 28 days at 40° C. vs 5° C., pH 4.5 acetate buffer (Example 12). Particulars: 28 days 40° C. vs 5° C.; pH 4.5, 20 mM acetate buffer; 300 μM. In kind it is physicochemical. How it is done: The chemical stability of the compounds was assessed by storing the compounds under various conditions and then determining the loss of purity by UPLC-UV.
Prior to measuring the chemical stability of a batch of test compound, the purity of the compound was determined through UPLC/MS. For stability testing the target concentration was 300 μM pure compound. Therefore, solutions from solid samples were prepared in a pH 4.5, 20 mM acetate buffer system with a concentration of 300 μM compound based on the previously determined % purity:
At the starting point, UPLC-UV was performed by injection of 2 μl of the undiluted sample. Aliquots were then stored for 28 days at temperatures of 5 and 40° C. […] Then 2 μl samples of the undiluted supernatant were analysed with UPLC-UV. The chemical stability was calculated by the equation: [(purity after 28 days at 5° C.)−(purity after 28 days at 40° C.)]/(purity after 28 days at 5° C.)]×100%. The purity was calculated as: [(peak area compound)/(total peak area)]×100%.

[7] abbreviates: 0% HSA, read-out: EC50 [nM], 0% HSA.

Like-named read-outs stand apart in the source and are kept apart here. Starred links: 1 amine or outer side, 2 acyl side, 3 side chain; linkers in the order of their positions; H or OH if unused. Non-standard residues stand in square brackets, D forms with d. Residues, ends and D or L forms follow the SMILES beside them. Groups on a side chain read outwards from the residue. *: point of attachment. C18 diacid = O=C(O)CCCCCCCCCCCCCCCCC(=O)*; γGlu = O=C(O)[C@H](CCC(=O)[*:2])N[*:1]; AEEA = NCCOCCOCC(=O)O; Aib = CC(C)(N)C(=O)O Some results are limits rather than exact numbers.

The term EC50 denotes the midpoint of the concentration-response curve. What is called Emax is the size of the effect at its maximum, as opposed to the concentration needed. In general, solubility refers to the concentration that dissolves in the medium under given conditions. The term bioavailability denotes dose-corrected exposure relative to a reference, in per cent. One may read the AUC(0-t) as exposure summed from dosing to a finite time, without extrapolation to infinity. Low values mean less exposure, high ones more exposure. The Cmax is the maximum level reached in the sampled fluid or tissue. What is called half-life is how long it takes for the measured level to halve.

Consider `CC[C@H](C)[C@H](N)C(=O)N[C@H](C(=O)N[C@@H](CC(C)C)C(=O)N[C@@H](CO)C(=O)N[C@@H](CC(C)C)C(=O)N[C@@H](CC(=O)O)C(=O)N[C@@H](C(=O)N1CCC[C@H]1C(=O)N[C@H](C(=O)N[C@@H](CCCCN)C(=O)N[C@@H](CC(C)C)C(=O)N[C@@H](CCCCNC(=O)COCCOCCNC(=O)COCCOCCNC(=O)CC[C@H](NC(=O)CCCCCCCCCCCCCCCCC(=O)O)C(=O)O)C(=O)N[C@@H](CCC(N)=O)C(=O)N[C@@H](CCCCN)C(=O)N[C@@H](CC(C)C)C(=O)N[C@@H](CC(C)C)C(=O)N[C@@H](CCCCN)C(=O)N[C@@H](CCC(N)=O)C(=O)N[C@@H](CCC(=O)O)C(=O)N[C@@H](CCCNC(=N)N)C(=O)N[C@@H](CCC(N)=O)C(=O)N[C@@H](CCCNC(=N)N)C(=O)N[C@@H](CCCCN)C(=O)N[C@@H](CCC(=O)O)C(=O)N[C@@H](CCCNC(=N)N)C(=O)N[C@@H](CCC(=O)O)C(=O)N[C@@H](CCC(N)=O)C(=O)N[C@@H](C)C(=O)N[C@@H](CCC(=O)O)C(=O)N[C@@H](CCCCN)C(=O)N[C@@H](CC(N)=O)C(=O)N[C@@H](CCCCN)C(=O)N[C@@H](CCCNC(=N)N)C(=O)N[C@H](C(=O)N[C@@H](CC(C)C)C(=O)N[C@@H](CCC(=O)O)C(=O)N[C@@H](CCCNC(=N)N)C(=O)N[C@H](C(N)=O)C(C)C)[C@@H](C)CC)[C@@H](C)O)C(C)C)C(C)C` [compound 24] (H-IVLSLD[dV]PTKLK([AEEA-AEEA-γGlu-C18 diacid])QKLLKQERQRKEREQAEKNKRILERV-NH2; N-terminus assumed), for which the EC50 in data set [1] (setting [7]) was 6.95 nM; in data set [2], 4.94 nM; in data set [3] (0% HSA) it was greater than 1000 nM. Moreover, the Emax in data set [3] (read-out: Emax (%)) was 1.48%. In data set [4], this compound showed a solubility at 1 h greater than 10.1 mg/mL. Besides, the clearance in data set [5] (SD, iv, 0.1 mg/kg i.v., read-out: CI (converted)) was 0.43 mL/min/kg. Besides, in data set [5] (SD, sc, 0.3 mg/kg s.c.), the bioavailability is 24%. Further, the AUC(0-t) in data set [5] (iv, 0.1 mg/kg i.v.) turned out to be 3790 ng·h/mL; in data set [5] (sc, 0.3 mg/kg s.c.) it was 2610 ng·h/mL. The highest concentration (Cmax) is 1480 ng/mL in data set [5] (iv, 0.1 mg/kg i.v.) and 171 ng/mL in data set [5] (sc, 0.3 mg/kg s.c.). The half-life is 4.81 h in data set [5] (iv, 0.1 mg/kg i.v.) and 5.51 h in data set [5] (sc, 0.3 mg/kg s.c.).
Turning to `CC[C@H](C)[C@H](N)C(=O)N[C@H](C(=O)N[C@@H](CC(C)C)C(=O)N[C@@H](CO)C(=O)N[C@@H](CC(C)C)C(=O)N[C@@H](CC(=O)O)C(=O)N[C@@H](C(=O)N1CCC[C@H]1C(=O)N[C@H](C(=O)N[C@@H](CCCCN)C(=O)N[C@@H](CC(C)C)C(=O)N[C@@H](CCCCNC(=O)COCCOCCNC(=O)COCCOCCNC(=O)CC[C@H](NC(=O)CCCCCCCCCCCCCCCCC(=O)O)C(=O)O)C(=O)N[C@@H](CCC(N)=O)C(=O)N[C@H](C(=O)N[C@@H](CC(C)C)C(=O)N[C@@H](CC(C)C)C(=O)N[C@@H](CCC(=O)O)C(=O)N[C@@H](CCC(N)=O)C(=O)N[C@@H](C)C(=O)N[C@@H](CCCNC(=N)N)C(=O)N[C@@H](CCC(N)=O)C(=O)N[C@@H](CCCCN)C(=O)NC(C)(C)C(=O)N[C@@H](CCC(N)=O)C(=O)N[C@@H](CCCNC(=N)N)C(=O)N[C@@H](C)C(=O)N[C@@H](CCC(N)=O)C(=O)N[C@@H](C)C(=O)N[C@@H](CCC(=O)O)C(=O)N[C@@H](CCCCN)C(=O)N[C@@H](CC(N)=O)C(=O)N[C@@H](CCCCN)C(=O)N[C@@H](CCCNC(=N)N)C(=O)N[C@H](C(=O)N[C@@H](CC(C)C)C(=O)N[C@@H](CCC(=O)O)C(=O)N[C@@H](CCCNC(=N)N)C(=O)N[C@H](C(N)=O)C(C)C)[C@@H](C)CC)[C@@H](C)CC)[C@@H](C)CC)C(C)C)C(C)C` [compound 140] (H-IVLSLD[dV]PIKLK([AEEA-AEEA-γGlu-C18 diacid])QILLEQARQK[Aib]QRAQAEKNKRILERV-NH2; N-terminus assumed), the EC50 in data set [1] (setting [7]) was found to be 0.04 nM; in data set [1] (0.1% HSA, read-out: EC50 [nM], 0.1% HSA) it was 1.27 nM; in data set [2] it was 0.1 nM. In data set [6], the “Relative purity loss [%]” value worked out at 4.30%.
